For 40 compounds, EC50 results are on record in BindingDB's records for doi:10.1021/jm070276i (Abbott Laboratories, 2007).

pEC50: −log10 of the molar value.

The target of this experiment is Transient receptor potential cation channel subfamily V member 1 (Homo sapiens, UniProt Q8NER1). Kind of experiment: Ca2+ Influx Functional Assay for the Determination of in Vitro Activity. As for the experimental part: The functional antagonist activity of compounds at the TRPV1 receptor was determined with a Ca2+ influx assay by measuring the effect on capsaicin (0.05 uM) evoked increase in intracellular Ca2+ levels using cells stably expressing recombinant human TRPV1. All compounds were tested over an 11-point half-log concentration range. The fluorescent Ca2+ chelating dye fluo-4 was used as an indicator of the relative levels of Ca2+ in a 96-well format using a fluorescence imaging plate reader. Fluorescence readings were made at 1-5 s intervals over the 240 s course of the experimental run. The peak increase in relative fluorescence units was calculated and expressed as a percentage of the 0.05 uM capsaicin (control) response. Curve fits of the data were solved using a four-parameter logistic Hill equation in GraphPad Prism, and IC50 values were calculated.
Transient receptor potential cation channel subfamily V member 1, sequence (Q8NER1 whole entry): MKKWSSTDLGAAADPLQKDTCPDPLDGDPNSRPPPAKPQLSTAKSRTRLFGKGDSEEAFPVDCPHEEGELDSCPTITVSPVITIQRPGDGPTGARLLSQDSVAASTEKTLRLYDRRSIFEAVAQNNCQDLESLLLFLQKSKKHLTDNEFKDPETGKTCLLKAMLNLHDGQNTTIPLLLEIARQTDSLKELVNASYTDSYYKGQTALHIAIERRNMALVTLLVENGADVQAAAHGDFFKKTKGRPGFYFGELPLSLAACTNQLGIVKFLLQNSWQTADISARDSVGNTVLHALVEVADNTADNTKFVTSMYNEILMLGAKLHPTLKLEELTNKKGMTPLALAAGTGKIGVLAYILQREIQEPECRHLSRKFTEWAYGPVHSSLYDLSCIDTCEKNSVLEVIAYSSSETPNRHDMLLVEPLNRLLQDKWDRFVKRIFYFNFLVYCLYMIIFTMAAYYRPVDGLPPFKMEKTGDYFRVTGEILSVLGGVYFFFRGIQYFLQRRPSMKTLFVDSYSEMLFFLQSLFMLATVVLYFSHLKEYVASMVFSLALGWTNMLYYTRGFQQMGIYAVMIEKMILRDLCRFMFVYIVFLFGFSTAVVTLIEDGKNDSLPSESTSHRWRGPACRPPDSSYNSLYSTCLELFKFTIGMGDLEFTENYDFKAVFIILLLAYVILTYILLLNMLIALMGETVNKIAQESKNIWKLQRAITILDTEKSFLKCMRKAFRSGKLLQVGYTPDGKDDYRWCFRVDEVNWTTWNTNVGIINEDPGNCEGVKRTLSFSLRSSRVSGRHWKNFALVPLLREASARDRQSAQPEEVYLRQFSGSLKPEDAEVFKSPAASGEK

By pEC50 is commonly meant the EC50 on a negative log10 scale, so that one unit is a factor of ten. The low end stands for a large EC50, the high end for a small EC50. Compound `Nc1cc2c(NC(=O)NCc3ccc(N4CCCCCC4)cc3)cccc2cn1` [1-(3-aminoisoquinolin-5-yl)-3-{[4-(azepan-1-yl)phenyl]methyl}urea] had a pEC50 (pH 7.4, 22 °C) of 8.01.

As for `O=C(NCc1ccc(N2CCOCC2)cc1)Nc1cccc2cnc(Cl)cc12` [1-(3-chloroisoquinolin-5-yl)-3-{[4-(morpholin-4-yl)phenyl]methyl}urea], for the setting “pH 7.4, 22 °C”, the pEC50 is 6.81.

`O=C1C[C@H]2CC[C@@H](C1)N2c1cc(F)c(CNC(=O)Nc2cccc3[nH]ncc23)cc1F` [1-({2,5-difluoro-4-[(1R,5S)-3-oxo-8-azabicyclo[3.2.1]octan-8-yl]phenyl}methyl)-3-1H-indazol-4-ylurea] had a pEC50 of 6.80.

The compound `O=C(NCc1ccc(N2[C@@H]3CCC[C@H]2CC3)c(F)c1F)Nc1cccc2[nH]ncc12` [1-({4-[(1R,5S)-8-azabicyclo[3.2.1]octan-8-yl]-2,3-difluorophenyl}methyl)-3-1H-indazol-4-ylurea] gave a pEC50 of 7.59.

`CC(C)(C)CCc1cc(N2[C@@H]3CCC[C@H]2CC3)ccc1CNC(=O)Nc1cccc2[nH]ncc12` [1-({4-[(1R,5S)-8-azabicyclo[3.2.1]octan-8-yl]-2-(3,3-dimethylbutyl)phenyl}methyl)-3-1H-indazol-4-ylurea] had a pEC50 of 7.99.

With `CC(C)c1cc(N2[C@@H]3CCC[C@H]2CC3)ccc1CNC(=O)Nc1cccc2[nH]ncc12` [1-({4-[(1R,5S)-8-azabicyclo[3.2.1]octan-8-yl]-2-(propan-2-yl)phenyl}methyl)-3-1H-indazol-4-ylurea], the pEC50 was 7.45.

`O=C(NCc1ccc(N2[C@@H]3CCC[C@H]2CC3)cc1C(F)(F)F)Nc1cccc2[nH]ncc12` [1-({4-[(1R,5S)-8-azabicyclo[3.2.1]octan-8-yl]-2-(trifluoromethyl)phenyl}methyl)-3-1H-indazol-4-ylurea] showed a pEC50 (pH 7.4, 22 °C) of 7.26.

Consider `Cn1ncc2c(NC(=O)NCc3ccc(N4[C@@H]5CCC[C@H]4CC5)cc3Cc3ccccc3)cccc21` [1-({4-[(1R,5S)-8-azabicyclo[3.2.1]octan-8-yl]-2-benzylphenyl}methyl)-3-(1-methyl-1H-indazol-4-yl)urea], for which the pEC50 was 7.72.

`O=C(NCc1ccc(N2[C@@H]3CCC[C@H]2CC3)cc1Cl)Nc1cccc2[nH]ncc12` [1-({4-[(1R,5S)-8-azabicyclo[3.2.1]octan-8-yl]-2-chlorophenyl}methyl)-3-1H-indazol-4-ylurea] showed a pEC50 (pH 7.4, 22 °C) of 7.23.

Turning to `Cc1cc(N2[C@@H]3CCC[C@H]2CC3)ccc1CNC(=O)Nc1cccc2[nH]ncc12` [1-({4-[(1R,5S)-8-azabicyclo[3.2.1]octan-8-yl]-2-methylphenyl}methyl)-3-1H-indazol-4-ylurea], the pEC50 was 7.54.

In turn, `O=C(NCc1cc(F)c(N2[C@@H]3CCC[C@H]2CC3)c(F)c1)Nc1cccc2[nH]ncc12` [1-({4-[(1R,5S)-8-azabicyclo[3.2.1]octan-8-yl]-3,5-difluorophenyl}methyl)-3-1H-indazol-4-ylurea] had a pEC50 of 7.90.

In turn, `O=C(NCc1ccc(N2[C@@H]3CCC[C@H]2CC3)c(C(F)(F)F)c1)Nc1cccc2[nH]ncc12` [1-({4-[(1R,5S)-8-azabicyclo[3.2.1]octan-8-yl]-3-(trifluoromethyl)phenyl}methyl)-3-1H-indazol-4-ylurea] gave a pEC50 of 7.57.

For the compound `O=C(NCc1ccc(N2[C@@H]3CCC[C@H]2CC3)c(Br)c1)Nc1cccc2[nH]ncc12` [1-({4-[(1R,5S)-8-azabicyclo[3.2.1]octan-8-yl]-3-bromophenyl}methyl)-3-1H-indazol-4-ylurea], the pEC50 was 7.36.

Consider `O=C(NCc1ccc(N2[C@@H]3CCC[C@H]2CC3)c(Cl)c1)Nc1cccc2[nH]ncc12` [1-({4-[(1R,5S)-8-azabicyclo[3.2.1]octan-8-yl]-3-chlorophenyl}methyl)-3-1H-indazol-4-ylurea], for which the pEC50 was 7.69.

`O=C(NCc1ccc(N2[C@@H]3CCC[C@H]2CC3)c(F)c1)Nc1cccc2[nH]ncc12` [1-({4-[(1R,5S)-8-azabicyclo[3.2.1]octan-8-yl]-3-fluorophenyl}methyl)-3-1H-indazol-4-ylurea] gave a pEC50 of 7.83.

Regarding `Cc1cc(CNC(=O)Nc2cccc3[nH]ncc23)ccc1N1[C@@H]2CCC[C@H]1CC2` [1-({4-[(1R,5S)-8-azabicyclo[3.2.1]octan-8-yl]-3-methylphenyl}methyl)-3-1H-indazol-4-ylurea], the pEC50 is 7.70.

Compound `O=C(NCc1ccc(N2[C@@H]3CCC[C@H]2CC3)cc1)Nc1cccc2[nH]ncc12` [1-({4-[(1R,5S)-8-azabicyclo[3.2.1]octan-8-yl]phenyl}methyl)-3-1H-indazol-4-ylurea] gave a pEC50 (pH 7.4, 22 °C) of 7.74.

`O=C(NCc1cc(F)c(N2[C@@H]3CC[C@H]2CC2(C3)OCCO2)cc1F)Nc1cccc2[nH]ncc12` [1-({4-[(1S,5R)-8-azaspiro[bicyclo[3.2.1]octane-3,2'-[1,3]dioxolane]]-2,5-difluorophenyl}methyl)-3-1H-indazol-4-ylurea] gave a pEC50 of 7.09.

The compound `CCN1CCc2cc(CNC(=O)Nc3cccc4[nH]ncc34)ccc21` [1-[(1-ethyl-2,3-dihydro-1H-indol-5-yl)methyl]-3-1H-indazol-4-ylurea] gave a pEC50 of 6.55.

Take `CC1CCN(c2ccc(CNC(=O)Nc3cccc4cnccc34)cc2)CC1` [1-isoquinolin-5-yl-3-{[4-(4-methylpiperidin-1-yl)phenyl]methyl}urea]: for the setting “pH 7.4, 22 °C”, the pEC50 is 8.03.

Turning to `O=C(NCc1ccc(N2CCOCC2)cc1)Nc1cccc2cnccc12` [1-isoquinolin-5-yl-3-{[4-(morpholin-4-yl)phenyl]methyl}urea], the pEC50 (pH 7.4, 22 °C) was 7.04.

`O=C(NCc1ccc(N2CCCCC2)cc1)Nc1cccc2cnccc12` [1-isoquinolin-5-yl-3-{[4-(piperidin-1-yl)phenyl]methyl}urea] gave a pEC50 (pH 7.4, 22 °C) of 8.14.

For the compound `O=C(NCc1ccc(C(F)(F)F)cc1)Nc1cccc2cnccc12` [1-isoquinolin-5-yl-3-{[4-(trifluoromethyl)phenyl]methyl}urea], the negative-log EC50 (pEC50) (pH 7.4, 22 °C) is 8.68.

`O=C(NCc1ccc(N2CCCCCC2)cc1C(F)(F)F)Nc1cccc2[nH]ncc12` [1-{[4-(azepan-1-yl)-2-(trifluoromethyl)phenyl]methyl}-3-1H-indazol-4-ylurea] had a negative-log EC50 (pEC50) (pH 7.4, 22 °C) of 6.88.

Turning to `O=C(NCc1ccc(N2CCCCCC2)cc1Cl)Nc1cccc2[nH]ncc12` [1-{[4-(azepan-1-yl)-2-chlorophenyl]methyl}-3-1H-indazol-4-ylurea], where the note is “pH 7.4, 22 °C”, the pEC50 was 6.72.

For the compound `O=C(NCc1cc(F)c(N2CCCCCC2)c(F)c1)Nc1cccc2[nH]ncc12` [1-{[4-(azepan-1-yl)-3,5-difluorophenyl]methyl}-3-1H-indazol-4-ylurea], for the setting “pH 7.4, 22 °C”, the pEC50 was 7.41.

`O=C(NCc1ccc(N2CCCCCC2)c(F)c1)Nc1cccc2[nH]ncc12` [1-{[4-(azepan-1-yl)-3-fluorophenyl]methyl}-3-1H-indazol-4-ylurea] had a pEC50 (pH 7.4, 22 °C) of 7.85.

In turn, `Cn1c2ccccc2c2cc(CNC(=O)Nc3cccc4[nH]ncc34)ccc21` [3-1H-indazol-4-yl-1-[(9-methyl-9H-carbazol-3-yl)methyl]urea] showed a pEC50 of 6.04.

`O=C(NCc1ccc(N2[C@@H]3CCC[C@H]2CC3)cc1)Nc1cccc2cnccc12` [3-({4-[(1R,5S)-8-azabicyclo[3.2.1]octan-8-yl]phenyl}methyl)-1-isoquinolin-5-ylurea] gave a pEC50 (pH 7.4, 22 °C) of 8.48.

Consider `O=C(NCc1cc(F)c(N2CCOCC2)c(F)c1)Nc1cccc2cnccc12` [3-{[3,5-difluoro-4-(morpholin-4-yl)phenyl]methyl}-1-isoquinolin-5-ylurea], for which the pEC50 (pH 7.4, 22 °C) is 8.03.

For the setting “pH 7.4, 22 °C”, `Cc1cc2c(NC(=O)NCc3ccc(N4Cc5ccccc5C4)c(F)c3)cccc2cn1` [3-{[4-(2,3-dihydro-1H-isoindol-2-yl)-3-fluorophenyl]methyl}-1-(3-methylisoquinolin-5-yl)urea] gave a pEC50 of 5.13.

As for `CC1CN(c2ccc(CNC(=O)Nc3cccc4cnccc34)cc2)CC(C)O1` (stereo not given) [3-{[4-(2,6-dimethylmorpholin-4-yl)phenyl]methyl}-1-isoquinolin-5-ylurea], the pEC50 (pH 7.4, 22 °C) is 6.59.

Consider `O=C(NCc1ccc(N2CCCCCC2)cc1C(F)(F)F)Nc1cccc2cnccc12` [3-{[4-(azepan-1-yl)-2-(trifluoromethyl)phenyl]methyl}-1-isoquinolin-5-ylurea], for which, under “pH 7.4, 22 °C”, the pEC50 is 8.24.

Regarding `O=C(NCc1ccc(N2CCCCCC2)cc1Cl)Nc1cccc2cnccc12` [3-{[4-(azepan-1-yl)-2-chlorophenyl]methyl}-1-isoquinolin-5-ylurea], the pEC50 (pH 7.4, 22 °C) was 8.28.

Compound `O=C(NCc1ccc(N2CCCCCC2)c(C(F)(F)F)c1)Nc1cccc2cnccc12` [3-{[4-(azepan-1-yl)-3-(trifluoromethyl)phenyl]methyl}-1-isoquinolin-5-ylurea] had a pEC50 (pH 7.4, 22 °C) of 8.34.

Take `O=C(NCc1ccc(N2CCCCCC2)c(F)c1)Nc1cccc2cnccc12` [3-{[4-(azepan-1-yl)-3-fluorophenyl]methyl}-1-isoquinolin-5-ylurea]: the pEC50 (pH 7.4, 22 °C) was 8.55.

Regarding `Cc1cc2c(NC(=O)NCc3ccc(N4CCCCCC4)cc3)cccc2cn1` [3-{[4-(azepan-1-yl)phenyl]methyl}-1-(3-methylisoquinolin-5-yl)urea], the pEC50 (pH 7.4, 22 °C) was 8.42.

In turn, `O=C(NCc1ccc(N2CCCCCC2)cc1)Nc1cccc2cnccc12` [3-{[4-(azepan-1-yl)phenyl]methyl}-1-isoquinolin-5-ylurea] had a pEC50 (pH 7.4, 22 °C) of 8.48.

For the setting “pH 7.4, 22 °C”, `O=C(NCc1ccc(N2CCCCCCC2)cc1)Nc1cccc2cnccc12` [3-{[4-(azocan-1-yl)phenyl]methyl}-1-isoquinolin-5-ylurea] showed a pEC50 of 8.33.

In the case of `CN(C)c1ccc(CNC(=O)Nc2cccc3cnccc23)cc1` [3-{[4-(dimethylamino)phenyl]methyl}-1-isoquinolin-5-ylurea], where the note is “pH 7.4, 22 °C”, the pEC50 was 6.80.
